Assay results as given in article PMC10258794, “To Fold or Not to Fold: Diastereomeric Optimization of an α-Helical Antimicrobial Peptide” (Journal of Medicinal Chemistry, 2023).
≈ marks a conversion by molar mass, not a printed value. Read-outs that look alike come from different tables or passages of the source. Non-standard residues stand in square brackets, D forms with d. Residues, ends and D or L forms follow the SMILES beside them.

How the values were obtained:
Enterobacter cloacae = assay: microbe, parasite or virus in culture
Experimental: (§1) Antimicrobial activity was determined for all peptides on E. coli W3110, P. aeruginosa PAO1, A. baumannii ATCC19606, K. pneumoniae NCTC418, and methicillin-resistant S. aureus COL and for selected peptides on P. aeruginosa PA14 and the polymyxin B-resistant derivatives PA14 4.13, PA14 4.18, and PA14 2P4 as well as the clinical isolates ZEM-1A and ZEM9A, K. pneumoniae OXA-48, Enterobacter cloacae, Stenotrophomonas maltophilia, B. cenocepacia, and Staphylococus epidermis. To determine the MIC, the broth microdilution method was used.[75] A single bacterial colony was grown in LB medium overnight at 37 °C and 180 rpm shaking. The compounds were prepared as stock solutions of 2 mg/mL in sterilized milliQ deionized water, added to the first well of 96-well sterile, polypropylene round-bottom microtiter plates (TPP, untreated, Corning Incorporated, Kennebunk, USA), and diluted serially by 1/2. […] The bacterial inoculum was prepared by measuring the absorbance of the overnight culture, which was diluted to concentration of the bacteria was quantified by measuring absorbance at 600 nm and diluted to an OD600 of 0.022 in MH medium pH 7.4 (Sigma-Aldrich, Buchs, Switzerland). The sample solutions (150 μL) were mixed with 4 μL of diluted bacterial suspension with a final inoculation of about 5 × 10^5 CFU. For each test, two columns of the plate were kept for sterility control (MH medium only) and growth control (MH medium with bacterial inoculum, no compound). […] The plates were incubated at 37 °C for 16–20 h under static conditions. 15 μL of 3-(4,5-dimethylthiazol-2-yl)-2,5-diphenyltetrazolium bromide (MTT)[76] (1 mg/mL in sterilized milliQ deionized water) was added to each well, and the plates were incubated at room temperature until MTT staining was completed. The MIC was defined as the lowest concentration of the dendrimer that inhibits the visible growth of the tested bacteria (yellow) with the unaided eye.

P. aeruginosa ZEM-1A = assay: microbe, parasite or virus in culture; settings: ZEM-1A
Experimental: as §1

[1] = EYPC vesicle leakage assay; assay type: biochemical; settings: 10 μg/mL of compound; 10 mM TRIS, 107 mM NaCl, pH 7.4
Experimental: 5(6)-carboxyfluorescein (CF) was purchased from Sigma. EYPC, EYPG, and a Mini-Extruder were purchased from Avanti Polar Lipids. Egg PC or Egg PG thin lipid layers were prepared by evaporating a solution of 100 mg of EYPC or EYPG in 4 mL of MeOH/CHCl3 (1:1) on a rotary evaporator at room temperature and then dried in vacuo overnight. […] Extravesicular components were removed by gel filtration (Sephadex G-50) with 10 mM TRIS, 107 mM NaCl, pH 7.4 buffer. Final conditions: ∼2.5 mM PC or PG; inside: 50 mM CF, 10 mM TRIS, 10 mM NaCl, pH 7.4 buffer; outside: 10 mM TRIS, 107 mM NaCl, pH 7.4. […] The CF efflux was monitored at λem 517 nm (λex 492 nm) as a function of time after addition of the desired volume of peptide from 2 mg/mL stock in mQ water at t = 45 s, 10 and 50 μg/mL were monitored for both EYPC and EYPG. […] Fluorescence intensities were then normalized to the maximal emission intensity using I(t) = (It – I0)/(I∞ – I0) where I0 = It at peptide addition, I∞ = It at saturation of lysis.

A. baumannii ATCC19606 = tested on: A. baumannii ATCC19606
Experimental: as §1

E. coli W3110 = tested on: E. coli W3110
Experimental: as §1

K. pneumoniae NCTC418 = tested on: K. pneumoniae NCTC418
Experimental: as §1

P. aeruginosa PAO1 = tested on: P. aeruginosa PAO1
Experimental: as §1

S. aureus COL MRSA = tested on: S. aureus COL MRSA
Experimental: as §1

human red blood cells = assay: Hemolysis assay (MHC)
Experimental: To determine the MHC stock solutions, 8 mg/mL peptide in PBS (pH 7.4) was prepared, and 50 μL was diluted serially by l/2 in 50 μL of PBS (pH 7.4) in a 96-well plate (Costar or Nunc, polystyrene, untreated). […] Plasma was discarded, and the pellet was re-suspended in a 15 mL Falcon tube in 5 mL of PBS. The washing was repeated three times, and the remaining pellet was re-suspended in 10 mL of PBS. The hRBC suspension (50 μL) was added to each well, and the plate was incubated at room temperature for 4 h. MHC end points were determined by visual determination of the wells after the incubation period. Controls on each plate included a blank medium control (50 μL PBS + 50 μL of hRBCs suspension) and a hemolytic activity control (mQ-deionized water 50 μL + 50 μL hRBC suspension).

[2] = MH broth pH 7.4, 16–20 h, 37 °C
[3] = supplementary CSV, ranges of Table 1 given as one number

Compound | MIC A. baumannii ATCC19606 (A. baumannii ATCC19606; [2]) | MIC A. baumannii ATCC19606 (A. baumannii ATCC19606; [3]) | MIC E. coli W3110 (E. coli W3110; [2]) | MIC K. pneumoniae NCTC418 (K. pneumoniae NCTC418; [2]) | MIC P. aeruginosa PAO1 (P. aeruginosa PAO1; [2]) | MIC P. aeruginosa PAO1 (P. aeruginosa PAO1; [3]) | MIC S. aureus COL MRSA (S. aureus COL MRSA; [2]) | MIC S. aureus COL (S. aureus COL MRSA; [3]) | also measured
CC(C)C[C@H](NC(=O)[C@H](CC(C)C)NC(=O)[C@H](CCCCN)NC(=O)[C@H](CC(C)C)NC(=O)[C@H](CC(C)C)NC(=O)[C@@H](CCCCN)NC(=O)[C@H](N)CCCCN)C(=O)N[C@@H](CCCCN)C(=O)N[C@@H](CC(C)C)C(=O)N[C@@H](CC(C)C)C(=O)N[C@H](CC(C)C)C(N)=O [HP7] | – | – | – | – | – | – | – | – | MIC E. cloacae (Enterobacter cloacae): 2 mg/L (≈ 1.51 µM); MIC ZEM-1A (P. aeruginosa ZEM-1A; pH 7.4): 1 mg/L (≈ 0.757 µM)
CC(C)C[C@H](NC(=O)[C@H](CC(C)C)NC(=O)[C@H](CC(C)C)NC(=O)[C@H](CCCCN)NC(=O)[C@H](CC(C)C)NC(=O)[C@H](CC(C)C)NC(=O)[C@H](CCCCN)NC(=O)[C@@H](CC(C)C)NC(=O)[C@@H](CC(C)C)NC(=O)[C@@H](CCCCN)NC(=O)[C@@H](N)CCCCN)C(N)=O [HP8, KkllKLLKLLL] | – | – | – | – | – | – | – | – | MIC P. aeruginosa ZEM-1A (P. aeruginosa ZEM-1A): 2 mg/L (≈ 1.51 µM)
CC(C)C[C@H](NC(=O)[C@H](CC(C)C)NC(=O)[C@@H](CC(C)C)NC(=O)[C@H](CCCCN)NC(=O)[C@@H](CC(C)C)NC(=O)[C@H](CC(C)C)NC(=O)[C@@H](CCCCN)NC(=O)[C@H](CC(C)C)NC(=O)[C@@H](CC(C)C)NC(=O)[C@H](CCCCN)NC(=O)[C@@H](N)CCCCN)C(N)=O [HP15, KKlLkLlKlLL] | 32 to 64 mg/L | 48 mg/L (≈ 36.3 µM) | 8 mg/L (≈ 6.05 µM) | >64 mg/L | 16 mg/L (≈ 12.1 µM) | 16 mg/L (≈ 12.1 µM) | >64 mg/L | – | EYPC vesicle leakage (%) [1]: 3%
CC(C)C[C@H](NC(=O)[C@H](CC(C)C)NC(=O)[C@@H](CCCCN)NC(=O)[C@H](CC(C)C)NC(=O)[C@H](CC(C)C)NC(=O)[C@@H](CCCCN)NC(=O)[C@H](N)CCCCN)C(=O)N[C@@H](CCCCN)C(=O)N[C@@H](CC(C)C)C(=O)N[C@H](CC(C)C)C(=O)N[C@H](CC(C)C)C(N)=O [HP26, kkLLkLLKLll] | 16 mg/L (≈ 12.1 µM) | 16 mg/L (≈ 12.1 µM) | 4 mg/L (≈ 3.03 µM) | >64 mg/L | 4 mg/L (≈ 3.03 µM) | 4 mg/L (≈ 3.03 µM) | 32 mg/L (≈ 24.2 µM) | 32 mg/L (≈ 24.2 µM) | EYPC vesicle leakage (%) [1]: 6%
CC(C)C[C@H](NC(=O)[C@H](CCCCN)NC(=O)[C@H](N)CCCCN)C(=O)N[C@@H](CC(C)C)C(=O)N[C@H](CCCCN)C(=O)N[C@H](CC(C)C)C(=O)N[C@H](CC(C)C)C(=O)N[C@@H](CCCCN)C(=O)N[C@@H](CC(C)C)C(=O)N[C@@H](CC(C)C)C(=O)N[C@H](CC(C)C)C(N)=O [HP28, kKLLkllKLLl] | – | – | 2 to 4 mg/L | >64 mg/L | 4 mg/L (≈ 3.03 µM) | 4 mg/L (≈ 3.03 µM) | 32 mg/L (≈ 24.2 µM) | 32 mg/L (≈ 24.2 µM) | EYPC vesicle leakage (%) [1]: 3%; MIC E. coli W3110 (E. coli W3110; [3]): 3 mg/L (≈ 2.27 µM)
CC(C)C[C@H](NC(=O)[C@@H](CC(C)C)NC(=O)[C@H](CC(C)C)NC(=O)[C@@H](CCCCN)NC(=O)[C@H](CC(C)C)NC(=O)[C@@H](CC(C)C)NC(=O)[C@H](CCCCN)NC(=O)[C@@H](CC(C)C)NC(=O)[C@H](CC(C)C)NC(=O)[C@@H](CCCCN)NC(=O)[C@@H](N)CCCCN)C(N)=O [HP30, KkLlKlLkLlL] | 32 mg/L (≈ 24.2 µM) | 32 mg/L (≈ 24.2 µM) | 8 mg/L (≈ 6.05 µM) | >64 mg/L | 8 to 16 mg/L | 12 mg/L (≈ 9.08 µM) | 64 mg/L (≈ 48.4 µM) | 64 mg/L (≈ 48.4 µM) | –
CC(C)C[C@H](NC(=O)[C@@H](CC(C)C)NC(=O)[C@H](CCCCN)NC(=O)[C@@H](CC(C)C)NC(=O)[C@H](CC(C)C)NC(=O)[C@@H](CCCCN)NC(=O)[C@H](CC(C)C)NC(=O)[C@@H](CC(C)C)NC(=O)[C@H](CCCCN)NC(=O)[C@H](N)CCCCN)C(=O)N[C@H](CC(C)C)C(N)=O [HP31, kKlLkLlKlLl] | 32 mg/L (≈ 24.2 µM) | 32 mg/L (≈ 24.2 µM) | 8 mg/L (≈ 6.05 µM) | >64 mg/L | 8 mg/L (≈ 6.05 µM) | 8 mg/L (≈ 6.05 µM) | 32 mg/L (≈ 24.2 µM) | 32 mg/L (≈ 24.2 µM) | –
CC[C@H](C)[C@H](NC(=O)[C@@H](NC(=O)[C@@H](NC(=O)[C@@H](CCCNC(=N)N)NC(=O)[C@@H](NC(=O)[C@@H](NC(=O)[C@@H](CCCNC(=N)N)NC(=O)[C@@H](NC(=O)[C@@H](NC(=O)[C@@H](CCCNC(=N)N)NC(=O)[C@H](N)CCCNC(=N)N)[C@@H](C)CC)[C@@H](C)CC)[C@@H](C)CC)[C@@H](C)CC)[C@@H](C)CC)[C@@H](C)CC)C(N)=O [HP37, rrIIrIIrIII] (H-[dR][dR]II[dR]II[dR]III-NH2) | – | – | – | – | – | – | – | – | MHC (human red blood cells): 250 µg/mL; MHC (human red blood cells; pH 7.4): 250 µg/mL; MIC A. baumannii ATCC19606 (A. baumannii ATCC19606; ATCC19606): 12 mg/L (≈ 8.37 µM); MIC A. baumannii ATCC19606 (A. baumannii ATCC19606; ATCC19606, pH 7.4): 8 to 16 mg/L; MIC K. pneumoniae NCTC418 (K. pneumoniae NCTC418; NCTC418): 48 mg/L (≈ 33.5 µM); MIC K. pneumoniae NCTC418 (K. pneumoniae NCTC418; NCTC418, pH 7.4): 32 to 64 mg/L; MIC P. aeruginosa PAO1 (P. aeruginosa PAO1; PAO1): 6 mg/L (≈ 4.18 µM); MIC P. aeruginosa PAO1 (P. aeruginosa PAO1; PAO1, pH 7.4): 4 to 8 mg/L; MIC S. aureus COL (S. aureus COL MRSA; COL): 12 mg/L (≈ 8.37 µM); MIC S. aureus COL MRSA (S. aureus COL MRSA; COL, pH 7.4): 8 to 16 mg/L
CC(C)C[C@@H](NC(=O)[C@@H](CC(C)C)NC(=O)[C@@H](CC(C)C)NC(=O)[C@@H](CCCCN)NC(=O)[C@@H](CC(C)C)NC(=O)[C@@H](CC(C)C)NC(=O)[C@@H](CCCCN)NC(=O)[C@@H](CC(C)C)NC(=O)[C@@H](CC(C)C)NC(=O)[C@@H](CCCCN)NC(=O)[C@H](N)CCCCN)C(N)=O [dln65, kkllkllklll] | 4 mg/L (≈ 3.03 µM) | 4 mg/L (≈ 3.03 µM) | 2 to 4 mg/L | 4 mg/L (≈ 3.03 µM) | 2 to 4 mg/L | 3 mg/L (≈ 2.27 µM) | 2 to 4 mg/L | 3 mg/L (≈ 2.27 µM) | MIC E. coli W3110 (E. coli W3110; [3]): 3 mg/L (≈ 2.27 µM); MIC K. pneumoniae NCTC418 (K. pneumoniae NCTC418; [3]): 4 mg/L (≈ 3.03 µM)
H-RRIIRIIRIII-NH2 [HP36] | – | – | – | – | – | – | – | – | MHC (human red blood cells): 63 µg/mL; MHC (human red blood cells; pH 7.4): 62.5 µg/mL; MIC A. baumannii ATCC19606 (A. baumannii ATCC19606; ATCC19606): 12 mg/L; MIC A. baumannii ATCC19606 (A. baumannii ATCC19606; ATCC19606, pH 7.4): 8 to 16 mg/L; MIC S. aureus COL (S. aureus COL MRSA; COL): 24 mg/L; MIC S. aureus COL MRSA (S. aureus COL MRSA; COL, pH 7.4): 16 to 32 mg/L
H-RRLLRLLRLLL-NH2 [HP32] | – | – | – | – | – | – | – | – | MHC (human red blood cells; human red blood cells in PBS pH 7.4, 4 h, room temperature): 15.6 µg/mL; MHC (human red blood cells; supplementary CSV, human red blood cells): 16 µg/mL
